What all share (type): in vivo
Conditions in all cases: Site No. 1 (control site; g active/ha): Pre-emergent Glyphosate 450, Ammonium sulphate 1.12 kg/ha

One experiment relates to Foxtail Barley. Kind of experiment: Example 7 field sites: visual % control of Foxtail Barley. The method, then:
(§1) Another study was conducted to test various application methods using flucarbazone-sodium (PREPARE) in a pre-emergent application followed by post-emergent application with propoxycarbazone (OLYMPUS®), pyroxsulam (Simplicity®), sulfosulfuron ([…]®), pinoxaden (AXIAL™ XL) and flucarbazone-sodium (EVEREST®) to control Bromus secalinus and Foxtail Barley.
(§2) To better evaluate the ability of each treatment scheme in controlling unwanted vegetation in a planting site, a group of nearly identical crop planting sites (Site 1-Site 10) were subjected to different treatment schemes. Again, Site No. 1 was a control site. Sites No. 2-Sites No. 10 were treated with either a pre-emergent treatment or sequential pre-emergent and post-emergent treatment schemes. Treatment rates were based on the recommended lower rate provided on the product label (grams of active ingredient per hectare). […]
(§3) Site No. 1 was not treated with a pre-emergent treatment or a post-emergent treatment, allowing Bromus secalinus and Foxtail Barley to emerge either with the crop or after crop emergence. […] Thus, percent control for Bromus secalinus and Foxtail Barley were evaluated as the weed-free area in the particular site in comparison to the completely weed covered Site No. 1. […]

Experiment [1] has as its system Wild Oat. Kind of experiment: Example 6 field sites: visual % control of wild oat. The procedure:
A study was conducted to test various application methods using flucarbazone-sodium (PREPARE) in a pre-emergent application followed by post-emergent application with clodinafop (DISCOVER® NG), pinoxaden (AXIAL™ XL) and flucarbazone-sodium (EVEREST®) for control of wild oat.
To better evaluate the ability of each treatment scheme in controlling unwanted vegetation in a planting site, a group of nearly identical crop planting sites (Site 1-Site 7) were subjected to different treatment schemes. Site No. 1 was to act as a control site and Site No. 2-Sites No. 7 were treated with a pre-emergent treatment or sequential pre-emergent and post-emergent treatment schemes. Treatment rates were based on the recommended rate provided on the product label (grams of active ingredient per hectare). Since the label provides a range, the rate applied is based on the lower recommended rate from the label range. […]
Site No. 1 was not treated with a pre-emergent or a post-emergent application of a herbicidally active compound according to embodiments of the present invention, allowing wild oat to emerge either with the crop or after crop emergence. […] Thus, percent control for wild oat was evaluated as the weed-free area in the particular site in comparison to the completely weed covered Site No. 1. […]

For the next experiment, the system named is Bromus secalinus. Put plainly: Example 7 field sites: visual % control of Cheat (Bromus secalinus). The method, then: as §1, §2, §3
Experiment [2] has as its system Wild Oat. Kind of experiment: Example 8 field sites: visual % control of Wild Oat. The method, then:
Another study was conducted to test various application methods using flucarbazone-sodium (PrePare) in a pre-emergent application followed by post-emergent application with propoxycarbazone (OLYMPUS®), pyroxsulam (SIMPLICITY®), sulfosulfuron ([…]®), pinoxaden (AXIAL™ XL) and flucarbazone-sodium (EVEREST®) to control Wild Oat.
To better evaluate the ability of each treatment scheme in controlling unwanted vegetation in a planting site, a group of nearly identical crop planting sites (Site 1-Site 10) were subjected to different treatment schemes. Site No. 1 was again a control site and sites No. 2-Sites No. 10 were treated with varying treatment schemes. Again, the treatment rates were based on the recommended lower rate provided on the product label (grams of active ingredient per hectare). […]
Site No. 1 was not treated with a pre-emergent application or post-emergent application of herbicidally active compounds, allowing Wild Oat to emerge either with the crop or after crop emergence. […] Thus, percent control for Wild Oat was evaluated as the weed-free area in the particular site in comparison to the completely weed covered Site No. 1. Further, the respective crop yield for each crop planting site was also recorded. […]

The subject of a further experiment is crop.

This is an account of results in US20090203526A1, “METHOD OF CONTROLLING UNWANTED VEGETATION” (Arysta LifeScience North America, LLC, priority 2008, published 2009).

Procedure for crop: Site No. 1 was again a control site and sites No. 2-Sites No. 10 were treated with varying treatment schemes. […] In all sites, any pre-existing weeds that germinated and grew to cover the sites were removed with glyphosate to ensure a more accurate determination of the viability of each treatment scheme. For Site No. 2-Site No. 10, glyphosate was tank-mixed with PREPARE and applied to each site prior to the emergence of the desired crop.
The remaining sites were allowed the same amount of time for weed growth and were visually compared to crop planting site (Site No. 1). […] Further, the respective crop yield for each crop planting site was also recorded.
Ammonium sulphate is a commercially available fertilizer blend used as an adjuvant to improve performance of glyphosate.

As for `O=C(O)CNCP(=O)(O)O` [Glyphosate, glyphosate], the “% Control of Foxtail Barley at 86 days after application” value in the experiment with Foxtail Barley is on record as 0%. Moreover, in the experiment with Wild Oat [1], the “% Control of Wild Oat at 89 days after application” value is on record as 0%. The “% Control of Cheat (Bromus secalinus) at 86 days after application” value in the experiment with Bromus secalinus is 5%. Besides, the “% Control of Wild Oat at 86 days after application” value in the experiment with Wild Oat [2] worked out at 27%. For the same compound, in the experiment on crop, the “Crop Yield” value turned out to be 20.1 Bu./Acre.
